Results published in patent US20260226086A1, “COMPOUNDS AND COMPOSITIONS AS STAT3 DEGRADERS AND USES THEREOF” (REGENTS OF THE UNIVERSITY OF MICHIGAN, priority 2023, published 2026).

Experiments:
STAT3 = target: T1, STAT3 (Homo sapiens, UniProt P40763); assay: HiBiT assay, STAT3 degradation in STAT3-HiBiT KI HeLa cells; format: cell-based; conditions: 24 h; for DC50: read-out: STAT3 Degradation (HeLa 24 h HiBit) DC50
T1 construct: This cell line is a clone created by using CRISPR-Cas9 to fuse HiBiT to the 3′ end of STAT3 in HeLa cells; host or cells: STAT3-HiBiT KI HeLa cell line (CRISPR-Cas9 knock-in clone)
T1 sequence (P40763 whole entry): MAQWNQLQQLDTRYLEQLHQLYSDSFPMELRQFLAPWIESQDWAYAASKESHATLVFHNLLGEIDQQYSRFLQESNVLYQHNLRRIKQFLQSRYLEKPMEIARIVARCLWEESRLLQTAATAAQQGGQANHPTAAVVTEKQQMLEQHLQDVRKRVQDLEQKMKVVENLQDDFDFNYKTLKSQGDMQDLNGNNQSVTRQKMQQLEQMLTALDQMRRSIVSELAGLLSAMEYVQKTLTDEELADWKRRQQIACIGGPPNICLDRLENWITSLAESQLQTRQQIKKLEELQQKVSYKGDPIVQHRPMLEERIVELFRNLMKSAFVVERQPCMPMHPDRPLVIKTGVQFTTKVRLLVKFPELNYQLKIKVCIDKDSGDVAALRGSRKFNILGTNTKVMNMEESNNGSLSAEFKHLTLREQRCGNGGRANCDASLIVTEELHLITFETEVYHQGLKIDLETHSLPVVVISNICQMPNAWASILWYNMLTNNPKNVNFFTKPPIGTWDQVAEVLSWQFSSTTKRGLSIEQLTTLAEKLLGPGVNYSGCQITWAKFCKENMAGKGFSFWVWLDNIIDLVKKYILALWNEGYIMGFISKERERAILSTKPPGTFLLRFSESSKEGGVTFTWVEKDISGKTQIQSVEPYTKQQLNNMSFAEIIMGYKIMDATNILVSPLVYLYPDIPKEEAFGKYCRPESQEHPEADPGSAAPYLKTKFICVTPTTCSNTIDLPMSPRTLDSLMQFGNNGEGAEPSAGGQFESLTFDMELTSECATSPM
Method: STAT3 degradation may be determined by HiBiT assay. STAT3-HiBiT KI HeLa cell line, which is a clone created by using CRTISPR-Cas9 to fuse HiBiT to the 3′ end of STAT3 in HeLa cells, may be used for this assay. In a typical procedure, cells seeded at certain amounts of cells (e.g., 20000 cells) per well are incubated with serially diluted compounds for certain period of time (e.g., 24 hours) under certain conditions (e.g., at 37° C. with 5% CO2). At the end of treatment, Nano-Glo HiBiT Lytic Detection reagents is added to the wells and luminescence is acquired on TECAN SPARK plate reader. Untreated cells are used as control. Data points are fit with a four-parameter equation to generate a concentration-response curve. IC50 values are calculated using a nonlinear regression analysis of the mean±SD from triplicate.
STAT3-HiBiT KI HeLa cell line was purchased from Promega. This cell line is a clone created by using CRISPR-Cas9 to fuse HiBiT to the 3′ end of STAT3 in HeLa cells. DMEM medium and FBS were purchased from Gibco/Thermo Fisher Scientific. STAT3 degradation was determined based on quantification of luminescent signal using Nano-Glo HiBiT Lytic Detection System. In a typical procedure, cells seeded at 20000 cells per well in 96-well white plates (Corning) were incubated with serially diluted compounds for 24 hours at 37° C. with 5% CO2. At the end of treatment, Nano-Glo HiBiT Lytic Detection reagents was added to the wells and luminescence was acquired on TECAN SPARK plate reader. Untreated cells were used as control. Data points were fit with a four-parameter equation to generate a concentration-response curve. IC50 values were calculated using a nonlinear regression analysis of the mean±SD from triplicate.

SUP-M2 cells = assay: CellTiter-Glo 2.0 cell viability assay, SUP-M2; format: cell-based; conditions: SUP-M2, 96 h, 4 days
Method: For example, cell viability may be determined by CellTiter-Glo 2.0 Cell Viability Assay. In a typical procedure, cells seeded at certain amounts of cells (e.g., 1000 cells) per well are incubated with serially diluted compounds for certain period (e.g., 4 days) under certain conditions (e.g., at 37° C. with 5% CO2). At the end of treatment, CellTiter-Glo 2.0 is added to the wells and luminescence is acquired on TECAN SPARK plate reader. Untreated cells are used as control, Data points are fit with an equation (e.g., a four-parameter equation) to generate a concentration-response curve. IC50 values are calculated using a nonlinear regression analysis of the mean±SD from triplicate.
SU-DHL-1 and SUP-M2 cell viability was determined by CellTiter-Glo 2.0 Cell Viability Assay (Promega). SU-DHL-1 cell line was purchased from ATCC (Manassas, VA) and SUP-M2 (ACC-509) was purchased from DSMZ (Germany). RPMI 1640 medium and fetal bovine serum (FBS) were purchased from Gibco/Thermo Fisher Scientific. In a typical procedure, cells seeded at 1000 cells per well in 384-well white plates (Corning) were incubated with serially diluted compounds for 4 days at 37° C. with 5% C02. At the end of treatment, CellTiter-Glo 2.0 was added to the wells and luminescence was acquired on TECAN SPARK plate reader. Untreated cells were used as control. Data points were fit with a four-parameter equation to generate a concentration-response curve. IC50 values were calculated using a nonlinear regression analysis of the mean±SD from triplicate.

Compound	Dmax at 1 µM (STAT3) [%]	DC50 (STAT3) [nM]	IC50 (SUP-M2 cells) [nM]
CCS(=O)(=O)c1ccc(CNC(=O)[C@H](CCC(N)=O)NC(=O)[C@@H]2CC[C@@H]3CCN(C(=O)CCCCc4cn([C@@H](C(=O)N5C[C@H](O)C[C@H]5C(=O)N[C@H](C)c5ccc(-c6scnc6C)cc5)C5CCN(C)CC5)nn4)C[C@H](NC(=O)c4cc5cc(C(=O)P(=O)(O)O)ccc5[nH]4)C(=O)N32)cc1 [Compound 21, (2-(((5S,8S,10aR)-8-(((S)-5-amino-1-((4-(ethylsulfonyl)benzyl)amino)-1,5-dioxopentan-2-yl)carbamoyl)-3-(5-(1-((R)-2-((2S,4R)-4-hydroxy-2-(((R)-1-(4-(4-methylthiazol-5-yl)phenyl)ethyl)carbamoyl)pyrrolidin-1-yl)-1-(1-methylpiperidin-4-yl)-2-oxoethyl)-1H-1,2,3-triazol-4-yl)pentanoyl)-6-oxodecahydropyrrolo[1,2-a][1,5]diazocin-5-yl)carbamoyl)-1H-indole-5-carbonyl)phosphonic acid]	> 80	< 10	< 10
CCS(=O)(=O)c1ccc(CNC(=O)[C@H](CCC(N)=O)NC(=O)[C@@H]2CC[C@@H]3CCN(C(=O)CCCCc4cn([C@@H](C(=O)N5C[C@H](O)C[C@H]5C(=O)N[C@H](C)c5ccc(-c6scnc6C)cc5)C5CCN(C(C)=O)CC5)nn4)C[C@H](NC(=O)c4cc5cc(C(=O)P(=O)(O)O)ccc5[nH]4)C(=O)N32)cc1 [Compound 22, (2-(((5S,8S,10aR)-3-(5-(1-((R)-1-(1-acetylpiperidin-4-yl)-2-((2S,4R)-4-hydroxy-2-(((R)-1-(4-(4-methylthiazol-5-yl)phenyl)ethyl)carbamoyl)pyrrolidin-1-yl)-2-oxoethyl)-1H-1,2,3-triazol-4-yl)pentanoyl)-8-(((S)-5-amino-1-((4-(ethylsulfonyl)benzyl)amino)-1,5-dioxopentan-2-yl)carbamoyl)-6-oxodecahydropyrrolo[1,2-a][1,5]diazocin-5-yl)carbamoyl)-1H-indole-5-carbonyl)phosphonic acid]	> 80	< 10	< 10
CCS(=O)(=O)c1ccc(CNC(=O)[C@H](CCC(N)=O)NC(=O)[C@@H]2CC[C@@H]3CCN(C(=O)CCCCCc4cn([C@H](C(=O)N5C[C@H](O)C[C@H]5C(=O)N[C@@H](COCCOCCOC)c5ccc(-c6scnc6C)cc5)C(C)(C)C)nn4)C[C@H](NC(=O)c4cc5cc(C(=O)P(=O)(O)O)ccc5[nH]4)C(=O)N32)cc1 [Compound 26]	> 80	< 10	–
COCCOCCOC[C@H](NC(=O)[C@@H]1C[C@@H](O)CN1C(=O)[C@@H](n1cc(CCCc2cccc(OC[C@H](CCC(N)=O)NC(=O)[C@@H]3CC[C@@H]4CCN(C(C)=O)C[C@H](NC(=O)c5cc6cc(C(=O)P(=O)(O)O)ccc6[nH]5)C(=O)N43)c2Cl)nn1)C(C)(C)C)c1ccc(-c2scnc2C)cc1 [Compound 27, (2-(((5S,8S,10aR)-3-acetyl-8-(((S)-5-amino-1-(2-chloro-3-(3-(1-((S)-1-((2S,4R)-4-hydroxy-2-(((R)-2-(2-(2-methoxyethoxy)ethoxy)-1-(4-(4-methylthiazol-5-yl)phenyl)ethyl)carbamoyl)pyrrolidin-1-yl)-3,3-dimethyl-1-oxobutan-2-yl)-1H-1,2,3-triazol-4-yl)propyl)phenoxy)-5-oxopentan-2-yl)carbamoyl)-6-oxodecahydropyrrolo[1,2-a][1,5]diazocin-5-yl)carbamoyl)-1H-indole-5-carbonyl)phosphonic acid]	> 80	< 10	–
CCS(=O)(=O)c1ccc(CNC(=O)[C@H](CCC(N)=O)NC(=O)[C@@H]2CC[C@@H]3CCN(C(=O)CCCCCc4cn([C@@H](C(=O)N5C[C@@H](O)C[C@@H]5C(=O)N[C@@H](C)c5ccc(-c6scnc6C)cc5)C5CCCCC5)nn4)C[C@H](NC(=O)c4cc5cc(C(=O)P(=O)(O)O)ccc5[nH]4)C(=O)N32)cc1 [Compound 28, (2-(((5S,8S,10aR)-8-(((S)-5-amino-1-((4-(ethylsulfonyl)benzyl)amino)-1,5-dioxopentan-2-yl)carbamoyl)-3-(6-(1-((R)-1-cyclohexyl-2-((2R,4S)-4-hydroxy-2-(((S)-1-(4-(4-methylthiazol-5-yl)phenyl)ethyl)carbamoyl)pyrrolidin-1-yl)-2-oxoethyl)-1H-1,2,3-triazol-4-yl)hexanoyl)-6-oxodecahydro-pyrrolo[1,2-a][1,5]diazocin-5-yl)carbamoyl)-1H-indole-5-carbonyl)phosphonic acid]	> 80	< 10	–
CCS(=O)(=O)c1ccc(CNC(=O)[C@H](CCC(N)=O)NC(=O)[C@@H]2CC[C@@H]3CCN(C(=O)CCCCCc4cn([C@@H](C(=O)N5C[C@@H](O)C[C@@H]5C(=O)N[C@@H](C)c5ccc(-c6scnc6C)cc5)C5CCOCC5)nn4)C[C@H](NC(=O)c4cc5cc(C(=O)P(=O)(O)O)ccc5[nH]4)C(=O)N32)cc1 [Compound 29, (2-(((5S,8S,10aR)-8-(((S)-5-amino-1-((4-(ethylsulfonyl)benzyl)amino)-1,5-dioxopentan-2-yl)carbamoyl)-3-(6-(1-((R)-2-((2R,4S)-4-hydroxy-2-(((S)-1-(4-(4-methylthiazol-5-yl)phenyl)ethyl)carbamoyl)pyrrolidin-1-yl)-2-oxo-1-(tetrahydro-2H-pyran-4-yl)ethyl)-1H-1,2,3-triazol-4-yl)hexanoyl)-6-oxodecahydropyrrolo[1,2-a][1,5]diazocin-5-yl)carbamoyl)-1H-indole-5-carbonyl)phosphonic acid]	> 80	< 10	–
CCS(=O)(=O)c1ccc(OC[C@H](CCC(N)=O)NC(=O)[C@@H]2CC[C@@H]3CCN(C(=O)CCCCc4cn([C@H](C(=O)N5C[C@H](O)C[C@H]5C(=O)N[C@@H](C)c5ccc(-c6scnc6C)cc5)C(C)(C)C)nn4)C[C@H](NC(=O)c4cc5cc(C(=O)P(=O)(O)O)ccc5[nH]4)C(=O)N32)cc1 [Compound 34, (2-(((5S,8S,10aR)-8-(((S)-5-amino-1-(4-(ethylsulfonyl)phenoxy)-5-oxopentan-2-yl)carbamoyl)-3-(5-(1-((S)-1-((2S,4R)-4-hydroxy-2-(((S)-1-(4-(4-methylthiazol-5-yl)phenyl)ethyl)carbamoyl)pyrrolidin-1-yl)-3,3-dimethyl-1-oxobutan-2-yl)-1H-1,2,3-triazol-4-yl)pentanoyl)-6-oxodecahydropyrrolo[1,2-a][1,5]diazocin-5-yl)carbamoyl)-1H-indole-5-carbonyl)phosphonic acid]	60 to 80	10 to 100	–
COCCOCCOCCOC[C@H](NC(=O)[C@@H]1C[C@@H](O)CN1C(=O)[C@@H](n1cc(CCCc2cccc(OC[C@H](CCC(N)=O)NC(=O)[C@@H]3CC[C@@H]4CCN(C(C)=O)C[C@H](NC(=O)c5cc6cc(C(=O)P(=O)(O)O)ccc6[nH]5)C(=O)N43)c2Cl)nn1)C(C)(C)C)c1ccc(-c2scnc2C)cc1 [Compound 35, (2-(((5S,8S,10aR)-3-acetyl-8-(((S)-5-amino-1-(2-chloro-3-(3-(1-((S)-1-((2S,4R)-4-hydroxy-2-(((R)-13-(4-(4-methylthiazol-5-yl)phenyl)-2,5,8,11-tetraoxatridecan-13-yl)carbamoyl)pyrrolidin-1-yl)-3,3-dimethyl-1-oxobutan-2-yl)-1H-1,2,3-triazol-4-yl)propyl)phenoxy)-5-oxopentan-2-yl)carbamoyl)-6-oxodecahydropyrrolo[1,2-a][1,5]diazocin-5-yl)carbamoyl)-1H-indole-5-carbonyl)phosphonic acid]	> 80	10 to 100	10 to 100
CC(=O)N1CC[C@H]2CC[C@@H](C(=O)N[C@@H](CCC(N)=O)COc3cccc(CCCc4cn([C@H](C(=O)N5C[C@H](O)C[C@H]5C(=O)N[C@@H](C)c5ccc(-c6scnc6C)cc5)C(C)(C)C)nn4)c3Cl)N2C(=O)[C@@H](NC(=O)c2cc3cc(C(F)(F)P(=O)(O)O)ccc3s2)C1 [Compound 44]	> 80	< 10	–
